Results: patent US20230090255A1, “MAGL INHIBITOR, PREPARATION METHOD THEREFOR AND USE THEREOF” (LUNAN PHARMACEUTICAL GROUP CORPORATION, priority 2019, published 2023)
Marks after values point to notes of the source that are not given here.

Key:
[1] = test system: mice pain response induced by hot plate; experiment: Mice pain response induced by hot plate; format: in vivo, ICR mice; details: for Pain threshold: hot plate 55°C
Method in brief: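 Female ICR mice (20±2 g) dosed intragastrically for 7 consecutive days. Latency to hind-paw licking on a 55±0.5° C hot plate measured at 30, 60, 90 and 120 min after the last dose, with a 60 s cap. Mice with baseline latency <5 s or >30 s, or jumping, excluded.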

[2] = test system: mice with inflammatory pain; experiment: Pain threshold of mice with inflammatory pain (complete Freund's adjuvant); format: in vivo, SD mice; details: for Pain threshold: complete Freund's adjuvant paw model
[3] = test system: mice writhing caused by acetic acid; experiment: Mice writhing caused by acetic acid; details: for Writhing times: 1 h before 0.7% acetic acid ip, within 20 min; for Latent time: time to first writhing; for Inhibition ratio: writhing inhibition
[4] = test system: ulcerative colitis mice; experiment: Mice ulcerative colitis (DSS); format: in vivo, BALB/c mice; details: for Total times of hematochezia within the four periods / Colon length / IL-1 content: DSS mice; for Colon length: four periods; for IL-1 content: serum, ELISA
[5] = test system: irritable bowel syndrome rats; experiment: Irritable bowel syndrome rats induced by early maternal separation; format: in vivo, SD rats; design: AWR scoring: scale not given here; details: for Colon 5-HT / Serum 5-HT / AWR scoring: IBS rats

In the case of O=C(Nc1cccc(Cl)c1)C1CCN(C(=O)c2cc3cc(F)ccc3[nH]2)CC1 [MAGLZ-II-18 (a)], the “pain thresholds of the thermal-stimulus mice, in words” value ([1]; compared with the model group) is reported as “significantly extend”, the Pain threshold ([1]; high dose 30 mg/kg ig 7 d, 30 min after final administration) is reported as 40.86 ± 7.17 s and the Pain threshold ([1]; high dose 30 mg/kg ig 7 d, 60 min) is reported as 46.29 ± 5.27 s. For the same molecule, the Pain threshold ([1]; high dose 30 mg/kg ig 7 d, 90 min) was 48.70 ± 5.73 s, the Pain threshold ([1]; high dose 30 mg/kg ig 7 d, 120 min) was 47.04 ± 5.54 s and the Pain threshold ([1]; low dose 7.5 mg/kg ig 7 d, 30 min after final administration) was 34.62 ± 6.65 s. For the same molecule, the Pain threshold ([1]; low dose 7.5 mg/kg ig 7 d, 60 min) was 40.29 ± 6.73 s, the Pain threshold ([1]; low dose 7.5 mg/kg ig 7 d, 90 min) was 43.98 ± 6.55 s and the Pain threshold ([1]; low dose 7.5 mg/kg ig 7 d, 120 min) was 43.56 ± 6.01 s. For the same molecule, the Pain threshold ([1]; middle dose 15 mg/kg ig 7 d, 30 min after final administration) was 37.51 ± 6.07 s, the Pain threshold ([1]; middle dose 15 mg/kg ig 7 d, 60 min) was 42.42 ± 5.90 s and the Pain threshold ([1]; middle dose 15 mg/kg ig 7 d, 90 min) was 45.86 ± 7.09 s. For the same molecule, the Pain threshold ([1]; middle dose 15 mg/kg ig 7 d, 120 min) was 44.38 ± 5.44 s, the “pain threshold of the mice with inflammatory pain, in words” value ([2]; compared with the model group) was “significantly extend” and the Pain threshold ([2]; high dose 30 mg/kg ig once per day, 0 d) was 12.85 ± 2.26 s. For the same molecule, the Pain threshold ([2]; high dose 30 mg/kg ig once per day, 1 d) was 7.49±0.79^∗∗∗ s, the Pain threshold ([2]; high dose 30 mg/kg ig once per day, 3 d) was 9.35±1.2^∗∗∗ s and the Pain threshold ([2]; high dose 30 mg/kg ig once per day, 7 d) was 10.37±1.59^∗∗∗ s. The Pain threshold ([2]; low dose 7.5 mg/kg ig once per day, 0 d) was 12.73 ± 2.43 s, the Pain threshold ([2]; low dose 7.5 mg/kg ig once per day, 1 d) was 6.97±0.87^∗∗ s and the Pain threshold ([2]; low dose 7.5 mg/kg ig once per day, 3 d) was 8.44±1.03^∗∗∗ s. The Pain threshold ([2]; low dose 7.5 mg/kg ig once per day, 7 d) was 9.56±0.92^∗∗ s, the Pain threshold ([2]; middle dose 15 mg/kg ig once per day, 0 d) was 12.86 ± 2.25 s and the Pain threshold ([2]; middle dose 15 mg/kg ig once per day, 1 d) was 7.26±0.70^∗∗∗ s. The Pain threshold ([2]; middle dose 15 mg/kg ig once per day, 3 d) was 9.01±0.68^∗∗∗ s, the Pain threshold ([2]; middle dose 15 mg/kg ig once per day, 7 d) was 10.37±1.49^∗∗∗ s and the “latent time, in words” value ([3]; compared with the model group) was “extend”. For the same molecule, the “mice writhing times caused by acetic acid, in words” value ([3]; compared with the model group) was “significantly decrease”, the Writhing times ([3]; high dose 30 mg/kg ig) was 17.8±11.1 and the Latent time ([3]; high dose 30 mg/kg ig) was 422.4 ± 137.9 s. The Inhibition ratio ([3]; high dose 30 mg/kg ig) was 54.7%, the Writhing times ([3]; low dose 7.5 mg/kg ig) was 24.2±8.5 and the Latent time ([3]; low dose 7.5 mg/kg ig) was 355.5 ± 136.5 s. For the same molecule, the Inhibition ratio ([3]; low dose 7.5 mg/kg ig) was 38.4%, the Writhing times ([3]; middle dose 15 mg/kg ig) was 20.8±12.5 and the Latent time ([3]; middle dose 15 mg/kg ig) was 380.7 ± 130.7 s. For the same molecule, the Inhibition ratio ([3]; middle dose 15 mg/kg ig) was 47.1%, the “Total times of hematochezia within the four periods” value ([4]; high dose 30 mg/kg ig) was 27.90±7.28 and the Colon length ([4]; high dose 30 mg/kg ig) was 7.72±0.92 cm. For the same molecule, the IL-1 content ([4]; high dose 30 mg/kg ig) was 36.22 ± 4.31 pg/mL, the “Total times of hematochezia within the four periods” value ([4]; low dose 7.5 mg/kg ig) was 33.60±5.83 and the Colon length ([4]; low dose 7.5 mg/kg ig) was 6.51±0.90 cm. For the same molecule, the IL-1 content ([4]; low dose 7.5 mg/kg ig) was 47.32 ± 9.06 pg/mL, the “Total times of hematochezia within the four periods” value ([4]; middle dose 15 mg/kg ig) was 29.90±8.95 and the Colon length ([4]; middle dose 15 mg/kg ig) was 7.06±1.20 cm. The IL-1 content ([4]; middle dose 15 mg/kg ig) was 43.77 ± 10.69 pg/mL, the “IL-1 content, in words” value ([4]; compared with the model group) was “decrease” and the “colon length, in words” value ([4]; compared with the model group) was “significantly increase”. The “total times of hematochezia, in words” value ([4]; compared with the model group) was “reduce”, the “Colon 5-HT” value ([5]; high dose 30 mg/kg ig 20 d) was 13.90 ± 1.13 µg/mg and the “Serum 5-HT” value ([5]; high dose 30 mg/kg ig 20 d) was 29.44 ± 4.37 µg/mL. The AWR scoring ([5]; high dose 30 mg/kg ig 20 d, 20 mm Hg) was 1.96±0.46** *, the AWR scoring ([5]; high dose 30 mg/kg ig 20 d, 40 mm Hg) was 2.60±0.58 and the AWR scoring ([5]; high dose 30 mg/kg ig 20 d, 60 mm Hg) was 3.00±0.54. For the same molecule, the “Colon 5-HT” value ([5]; low dose 7.5 mg/kg ig 20 d) was 16.43 ± 2.15 µg/mg, the “Serum 5-HT” value ([5]; low dose 7.5 mg/kg ig 20 d) was 32.51 ± 5.01 µg/mL and the AWR scoring ([5]; low dose 7.5 mg/kg ig 20 d, 20 mm Hg) was 2.58±0.26. For the same molecule, the AWR scoring ([5]; low dose 7.5 mg/kg ig 20 d, 40 mm Hg) was 3.06±0.38, the AWR scoring ([5]; low dose 7.5 mg/kg ig 20 d, 60 mm Hg) was 3.50±0.29 and the “Colon 5-HT” value ([5]; middle dose 15 mg/kg ig 20 d) was 14.64 ± 2.17 µg/mg. The “Serum 5-HT” value ([5]; middle dose 15 mg/kg ig 20 d) was 30.20 ± 5.59 µg/mL, the AWR scoring ([5]; middle dose 15 mg/kg ig 20 d, 20 mm Hg) was 2.35±0.40 and the AWR scoring ([5]; middle dose 15 mg/kg ig 20 d, 40 mm Hg) was 3.02±0.51. The AWR scoring ([5]; middle dose 15 mg/kg ig 20 d, 60 mm Hg) was 3.39±0.34, the “5-HT level in colon and serum, in words” value ([5]; compared with the model group) was “significantly decrease” and the “AWR scoring, in words” value ([5]; compared with the model group) was “significantly decrease”.
